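1) Cells in 96-well plates. 2) Compound, 48 h, 5 concentrations. 3) Linear interpolation between surrounding doses. 4) Unreached endpoint = highest concentration. The concentration for full growth arrest is given as TGI.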
Assays:
Test in all cases: DTP human tumour cell line panel, 48 h
[1] = tested on: HOP-92 NSCLC
[2] = tested on: OVCAR-4 ovarian
[3] = tested on: OVCAR-3 ovarian
[4] = tested on: MDA-MB-435
[5] = tested on: SK-MEL-5 melanoma
[6] = tested on: NCI-H226 lung
[7] = tested on: SK-MEL-28 melanoma
[8] = tested on: RXF 393 renal
[9] = tested on: ACHN renal
[10] = tested on: SF-539 CNS
[11] = tested on: T-47D breast
[12] = tested on: A549 NSCLC
[13] = tested on: BT-549 breast
[14] = tested on: A498 renal
[15] = tested on: U251 CNS
[16] = tested on: HCT-15 colon
[17] = tested on: SK-MEL-2 melanoma
[18] = tested on: SR leukemia
[19] = tested on: UO-31 renal
[20] = tested on: SW-620 colon
[21] = tested on: SNB-75 CNS
[22] = tested on: 786-0 renal
[23] = tested on: PC-3 prostate
[24] = tested on: SF-295 CNS
[25] = tested on: MDA-MB-231 breast
[26] = tested on: CCRF-CEM leukemia
[27] = tested on: SF-268 CNS
[28] = tested on: LOX IMVI melanoma
[29] = tested on: HCT-116 colon
[30] = tested on: M14 melanoma
[31] = tested on: OVCAR-5 ovarian
[32] = tested on: HOP-62 NSCLC
[33] = tested on: NCI-H522 lung
[34] = tested on: RPMI-8226 leukemia
[35] = tested on: SN12C renal
[36] = tested on: OVCAR-8 ovarian
[37] = tested on: UACC-257 melanoma
[38] = tested on: K-562 leukemia
[39] = tested on: TK-10 renal
[40] = tested on: SNB-19 CNS
[41] = tested on: NCI-H460 lung
[42] = tested on: DU-145 prostate
[43] = tested on: NCI-H23 lung
[44] = tested on: MOLT-4 leukemia
[45] = tested on: COLO 205 colon
[46] = tested on: HL-60(TB) leukemia
[47] = tested on: HS 578T breast
[48] = tested on: EKVX NSCLC
[49] = tested on: CAKI-1 renal
[50] = tested on: SK-OV-3 ovarian
[51] = tested on: NCI/ADR-RES ovarian
[52] = tested on: UACC-62 melanoma
[53] = tested on: MCF7 breast
[54] = tested on: HT29 colon
[55] = tested on: HCC-2998 colon
[56] = tested on: MALME-3M melanoma
[57] = tested on: IGROV1 ovarian
[58] = tested on: MDA-N
[59] = tested on: KM12 colon

Measured: TGI

O=C(CC(NC(=O)C(F)(F)F)C(=O)O)OCc1ccccc1 (centres undefined)
> 100 µM: all assays above

Reference: PubChem BioAssay (NCI)
